These results are taken from EP0174571A2, “Derivatives of amino acids, process for their preparation and pharmaceutical compositions” (BOEHRINGER INGELHEIM KG, priority 1984, dated 1986).

In one assay the test system is Kaninchen. Put plainly: Blood pressure test in the rabbit (carotid artery). Conditions: 1 mg/kg i.v.; blood pressure from the carotid. It is filed as in vivo. Here is the method: Am Kaninchen (Blutdruckversuch aus der Carotis) wird nach Gabe von 1 mg/kg der Substanz, i.v., eine Blutdrucksenkung von 37 mm beobachtet.
For a further assay, the system named is narkotisierten Ratte. Nature of the assay: Blood pressure lowering in the anaesthetised rat after angiotensin I pressor stimulus. In kind it is in vivo. The conditions noted are these: 0,3 mg/kg i.v.; blood pressure raised beforehand with 0,1 mg/kg Angiotensin I i.v.; long lasting. The protocol: So erzeugt das N-[N-(3-Phenyl-2-S-mercaptopropanoyl)-S-alanyl]-S-prolin an der narkotisierten Ratte in einer Dosierung von 0,3 mg/kg i.v. eine lang anhaltende Blutdrucksenkung von 67 %, wenn man vorher durch eine i.v.-Gabe von 0,1 mg/kg Angiotensin I den Blutdruck steigert.

Take `CC(NC(=O)C(S)Cc1ccccc1)C(=O)N1CCCC1C(=O)O` (centres unmarked) [Beispiel 1, N-[N-(3-Phenyl-2-S-mercatopropanoyl)-S-alanyl]-S-prolin]: the Blutdrucksenkung in the assay with Kaninchen was 37 mm; with narkotisierten Ratte it was 67%.
